Broadly, the pIC50 is the negative decadic logarithm of the IC50, by convention in mol/L.

pIC50: −log10 of the molar value. Some results are limits rather than exact numbers.

Common to all, as to assay type: cell-based
Assay [1] concerns the target T1, pERK1/2 (Thr202/Tyr204), PANC-1 (KRAS G121D) (Homo sapiens, UniProt P01116, G12D).
T1 construct: pERK1/2 HTRF read-out
Nature of the assay: Assay of intracellular pERK1/2 (Thr202/Tyr204) phosphorylation in PANC-1 cells (KRAS G12D). To be noted: pERK1/2, 2 days, read-out: PANC-1 (KRAS G12D) IC50. The procedure: (§1) Example 2: Assay of intracellular pERK1/2 (Thr202/Tyr204)phosphorylation
(§2) 1. Reagents and materials: • pERK1/2 (Thr202/Tyr2O4) HIRE kit, Cisbio, Cat #64ERKPEH; • OptiPlate™-384-well plate, PerkinElmer, Cat #6007299; • 96-well plate, Coming, Cat #353072; • Instrument: EnVision2104, PerkinElmer; • Cell lines: NCI-1H358 (KRAS G12C), ATCC, CRL-5807; PANC-1 (KRAS G121D), ATCC, CRL-1469; NCI-1H441 (KRAS G12V), ATCC, HTB-174.
(§3) 2. Preparation of Reaction Solutions
(§4) • A test compound was dissolved in DMSO, diluted to 200.0 μM and further diluted 3-fold to prepare a series of test compounds at concentrations of 66.7, 22.2, 7.4, 2.5, 0.82, 0.27, 0.09 μM etc. Then 10 μL of the compound at different dilution concentrations was added to 190 μL of a DMEM medium to prepare a 10× test compound; • 1× cell lysis buffer: 4× cell lysis stock solution (provided by the kit) was diluted 4-fold with deionized water, and then 10% 100× blocking stock solution (provided by the kit) was added thereto. • pERK1/2 detection solution (prepared just before use): the pERK1/2 d2 antibody (provided by the kit) and pERK1/2 Cryptate antibody (provided by the kit) were diluted with the detection solution (provided by the kit) at a ratio of 1:1:38.
(§5) • Cells were inoculated into a 96-well plate (100 μL/well) at a density of 10000-12000/well. No cell was inoculated into a negative control well, and only the cell medium was added at 100 μL/well. The plate was placed in a cell incubator at 5% CO2 and 37° C. overnight. • 10 μL of the 10× test compound was added to the 100 μL cell culture 96-well plate; both the positive control well (that is, the control hole without chemical compound treatment) and the negative control well were charged with 10 μL of a 5% DMSO culture solution; and the plate was cultured in a cell incubator at 5% CO2 and 37° C. for 2 days. • The medium in the 96-well plate was removed; 50 μL of the 1× cell lysis buffer was added to each of the wells; the plate was placed in a microplate shaker; and lysis under shaking was carried out at 900 rpm at room temperature for 1 hour. • 16 μL of the lysis buffer in the 96-well plate was taken and transferred to a 384-well plate, followed by centrifugation at 1000 rpm for 30 s; then 4 μL of pERK1/2 detection solution was added to each well, followed by centrifugation at 1000 rpm for 30 s; and the 384-well plate was sealed with a sealing membrane and incubated at 25° C. on a low-speed shaker at 100 rpm in the dark for 2 hours. • The fluorescence value (RFU) of each well was detected on EnVision2104, with an emission wavelength 1 being 665 nm and an emission wavelength 2 being 615 nm.
(§6) Fluorescence ratio=fluorescence value665 nm/fluorescence value615 nm
(§7) Inhibition rate (%)=100−((fluorescence ratio of compound well−fluorescence ratio of negative control well)/(fluorescence ratio of positive control well−fluorescence ratio of negative control well))×100
(§8) wherein: • the fluorescence ratio of compound well refers to the fluorescence ratio of the well containing the test compounds; • the fluorescence ratio of negative control well refers to the fluorescence ratio of the cell-free control well; • the fluorescence ratio of positive control well refers to the fluorescence ratio of the cell well treated with 0.5% DMSO.
(§9) IC50 value: obtained by calculation using XL-Fit 5.0 software.

The target in assay [2] is T2, pERK1/2 (Thr202/Tyr204), NCI-1H358 (KRAS G12C) (Homo sapiens, UniProt P01116, G12C).
T2 construct: pERK1/2 HTRF read-out
T2 sequence (P01116 1-188 isoform P01116-2 G12C): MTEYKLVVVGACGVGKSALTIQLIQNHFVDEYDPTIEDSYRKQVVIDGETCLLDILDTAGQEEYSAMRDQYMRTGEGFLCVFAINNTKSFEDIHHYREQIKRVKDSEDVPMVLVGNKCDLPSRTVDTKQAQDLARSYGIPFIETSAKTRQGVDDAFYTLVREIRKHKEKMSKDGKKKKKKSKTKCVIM
Put plainly: Assay of intracellular pERK1/2 (Thr202/Tyr204) phosphorylation in NCI-H358 cells (KRAS G12C). To be noted: pERK1/2, 2 days, read-out: NCI-H358 (KRAS G12C) IC50. The procedure:
as §1, §2, §3, §4, §5, §6, §7, §8, §9

The target of assay [3] is T3, pERK1/2 (Thr202/Tyr204), NCI-1H441 (KRAS G12V) (Homo sapiens, UniProt P01116, G12V).
T3 construct: pERK1/2 HTRF read-out
T3 sequence (P01116 1-188 isoform P01116-2 G12V): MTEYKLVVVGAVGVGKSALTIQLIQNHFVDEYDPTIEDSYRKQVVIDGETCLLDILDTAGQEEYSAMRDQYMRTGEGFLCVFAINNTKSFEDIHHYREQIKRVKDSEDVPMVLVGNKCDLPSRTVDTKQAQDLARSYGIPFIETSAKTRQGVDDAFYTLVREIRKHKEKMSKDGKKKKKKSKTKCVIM
Nature of the assay: Assay of intracellular pERK1/2 (Thr202/Tyr204) phosphorylation in NCI-H441 cells (KRAS G12V). The settings on record: pERK1/2, 2 days, read-out: NCI-H441 (KRAS G12V) IC50. The procedure: as §1, §2, §3, §4, §5, §6, §7, §8, §9

T1 sequence (P01116 1-188 isoform P01116-2 G12D): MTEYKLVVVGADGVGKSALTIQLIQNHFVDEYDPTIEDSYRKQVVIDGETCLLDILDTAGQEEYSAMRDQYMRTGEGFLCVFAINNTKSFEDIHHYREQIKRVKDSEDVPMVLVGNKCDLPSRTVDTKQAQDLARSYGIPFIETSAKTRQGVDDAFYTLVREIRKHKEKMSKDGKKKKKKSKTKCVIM

Regarding `CC(c1cccnc1N)N1CCOc2nc(-c3cc(O)cc4ccc(F)c(F)c34)c(F)c3nc(OC[C@@H]4CC(F)(F)CN4C)nc1c23` (single isomer, unassigned) [Compound 51, 4-(10-((R or S)-1-(2-aminopyridin-3-yl)ethyl)-2-(((S)-4,4-difluoro-1-methylpyrrolidin-2-yl)methoxy)-4-fluoro-9,10-dihydro-8H-7-oxa-1,3,6,10-tetraazacyclohepta[de]naphthalen-5-yl)-5,6-difluoronaphthalen-2-ol], the pIC50 was 7.00 in assay [1], 8.70 in assay [2] and 8.30 in assay [3].
On the same counts, the results for `CC(c1cccnc1N)N1CCOc2nc(-c3cc(N)ccc3C(F)(F)F)c(F)c3nc(OC[C@@]45CCCN4C[C@H](F)C5)nc1c23` (single isomer, unassigned) [Compound 53, 3-((R or S)-1-(5-(5-amino-2-(trifluoromethyl)phenyl)-4-fluoro-2-(((2R,7aS)-2-fluorotetrahydro-1H-pyrrolizin-7a(5H)-yl)methoxy)-8,9-dihydro-10H-7-oxa-1,3,6,10-tetraazacyclohepta[de]naphthalen-10-yl)ethyl)pyridin-2-amine] are below 6.00, 7.06 and 6.72.
The like results for `CC(c1cccnc1N)N1CCOc2nc(-c3cc(N)ccc3C(F)(F)F)c(F)c3nc(OC[C@@]45CCCN4C[C@H](F)C5)nc1c23` (single isomer, unassigned) [Compound 54, 3-((R or S)-1-(5-(5-amino-2-(trifluoromethyl)phenyl)-4-fluoro-2-(((2R,7aS)-2-fluorotetrahydro-1H-pyrrolizin-7a(5H)-yl)methoxy)-8,9-dihydro-10H-7-oxa-1,3,6,10-tetraazacyclohepta[de]naphthalen-10-yl)ethyl)pyridin-2-amine] were, in that order, 7.68, 9.15 and 8.70.
For the compound `CC(c1cccnc1N)N1CCOc2nc(-c3cc(O)cc(Cl)c3C3CC3)c(F)c3nc(OC[C@@H]4CC(F)(F)CN4C)nc1c23` (single isomer, unassigned) [Compound 55, 3-(10-((R or S)-1-(2-aminopyridin-3-yl)ethyl)-2-(((S)-4,4-difluoro-1-methylpyrrolidin-2-yl)methoxy)-4-fluoro-9,10-dihydro-8H-7-oxa-1,3,6,10-tetraazacyclohepta[de]naphthalen-5-yl)-5-chloro-4-cyclopropylphenol], the pIC50 in assay [1] is below 6.00; in assay [2] it was 6.49; in assay [3], 6.29.
On to `CC(c1cccnc1N)N1CCOc2nc(-c3cc(O)cc(Cl)c3C3CC3)c(F)c3nc(OC[C@@H]4CC(F)(F)CN4C)nc1c23` (single isomer, unassigned) [Compound 56, 3-(10-((R or S)-1-(2-aminopyridin-3-yl)ethyl)-2-(((S)-4,4-difluoro-1-methylpyrrolidin-2-yl)methoxy)-4-fluoro-9,10-dihydro-8H-7-oxa-1,3,6,10-tetraazacyclohepta[de]naphthalen-5-yl)-5-chloro-4-cyclopropylphenol], for which the values for the pIC50 in assay [1], in assay [2] and in assay [3] were 6.87, 8.52 and 8.30, respectively.
For the compound `CC(c1cccnc1N)N1CCOc2nc(-c3cc(O)cc(Cl)c3C(F)(F)F)c(F)c3nc(OC[C@@]45CCCN4C[C@H](F)C5)nc1c23` (single isomer, unassigned) [Compound 57, 3-(10-((R or S)-1-(2-aminopyridin-3-yl)ethyl)-4-fluoro-2-(((2R,7aS)-2-fluorotetrahydro-1H-pyrrolizin-7a(5H)-yl)methoxy)-9,10-dihydro-8H-7-oxa-1,3,6,10-tetraazacyclohepta[de]naphthalen-5-yl)-5-chloro-4-(trifluoromethyl)phenol], the pIC50 in assay [1] was 6.13; in assay [2], 7.82; in assay [3], 7.49.
On the same counts, the results for `CC(c1cccnc1N)N1CCOc2nc(-c3cc(O)cc(Cl)c3C(F)(F)F)c(F)c3nc(OC[C@@]45CCCN4C[C@H](F)C5)nc1c23` (single isomer, unassigned) [Compound 58, 3-(10-((R or S)-1-(2-aminopyridin-3-yl)ethyl)-4-fluoro-2-(((2R,7aS)-2-fluorotetrahydro-1H-pyrrolizin-7a(5H)-yl)methoxy)-9,10-dihydro-8H-7-oxa-1,3,6,10-tetraazacyclohepta[de]naphthalen-5-yl)-5-chloro-4-(trifluoromethyl)phenol] are 6.83, 8.52 and 8.30.
As to `Cc1cc(N)cc(-c2nc3c4c(nc(OC[C@@]56CCCN5C[C@H](F)C6)nc4c2F)N(C(C)c2cccnc2N)CCO3)c1C(F)(F)F` (single isomer, unassigned) [Compound 61, 3-((R or S)-1-(5-(5-amino-3-methyl-2-(trifluoromethyl)phenyl)-4-fluoro-2-(((2R,7aS)-2-fluorotetrahydro-1H-pyrrolizin-7a(5H)-yl)methoxy)-8,9-dihydro-10H-7-oxa-1,3,6,10-tetraazacyclohepta[de]naphthalen-10-yl)ethyl)pyridin-2-amine], the pIC50 in assay [1] is 9.22; in assay [2], 9.70; in assay [3], 9.70.
Turning to `Cc1cc(N)cc(-c2nc3c4c(nc(OC[C@@]56CCCN5C[C@H](F)C6)nc4c2F)N(C(C)c2cccnc2N)CCO3)c1C(F)(F)F` (single isomer, unassigned) [Compound 62, 3-((R or S)-1-(5-(5-amino-3-methyl-2-(trifluoromethyl)phenyl)-4-fluoro-2-(((2R,7aS)-2-fluorotetrahydro-1H-pyrrolizin-7a(5H)-yl)methoxy)-8,9-dihydro-10H-7-oxa-1,3,6,10-tetraazacyclohepta[de]naphthalen-10-yl)ethyl)pyridin-2-amine], the negative-log IC50 (pIC50) in assay [1] is 7.26; in assay [2] it was 8.10; in assay [3] it was 8.05.
Regarding `CC(c1cccnc1N)N1CCOc2nc(-c3cc(N)cc(Cl)c3C(F)(F)F)c(F)c3nc(OC[C@@]45CCCN4C[C@H](F)C5)nc1c23` (single isomer, unassigned) [Compound 71, 3-((R or S)-1-(5-(5-amino-3-chloro-2-(trifluoromethyl)phenyl)-4-fluoro-2-(((2R,7aS)-2-fluorotetrahydro-1H-pyrrolizin-7a(5H)-yl)methoxy)-8,9-dihydro-10H-7-oxa-1,3,6,10-tetraazacyclohepta[de]naphthalen-10-yl)ethyl)pyridin-2-amine], the pIC50 in assay [1] is 9.22; in assay [2] it was 10.00; in assay [3] it was 9.40.
For `CC(c1cccnc1N)N1CCOc2nc(-c3cc(N)cc(Cl)c3C(F)(F)F)c(F)c3nc(OC[C@@]45CCCN4C[C@H](F)C5)nc1c23` (single isomer, unassigned) [Compound 72, 3-((R or S)-1-(5-(5-amino-3-chloro-2-(trifluoromethyl)phenyl)-4-fluoro-2-(((2R,7aS)-2-fluorotetrahydro-1H-pyrrolizin-7a(5H)-yl)methoxy)-8,9-dihydro-10H-7-oxa-1,3,6,10-tetraazacyclohepta[de]naphthalen-10-yl)ethyl)pyridin-2-amine], the pIC50 in assay [1] was 7.42; in assay [2], 7.96; in assay [3], 7.89.
